Measured values from US20110158947A1, “SULFONYLUREA RECEPTOR AND MEANS FOR TREATING ISCHAEMIA” (priority 2008, published 2011).

Legend:
[1] = tested on: H9C2 cells; test: Cell survival assay (Multitox-Fluor) under DNP metabolic stress; format: cell-based, rat; settings: control (GFP-infected) H9C2 cells, DNP 10 mM, n=14
Description: H9C2 cells Rat embryonic heart H9c2 cells (ECACC, Salisbury, UK) were cultured in a tissue flask (at 5% CO2) containing Dulbecco's modified Eagle's medium supplemented with 10% fetal calf serum and 2 mM glutamine. For electrophysiological experiments, the cells were plated on a 35×10-mm culture dish containing 25-mm glass cover-slips. The cells were cultured in incubators (Galaxy, oxygen control model, RS Biotech, Irvine, UK). […] The recombinant SUR2A adenovirus (AV-SUR2A) was generated using the AdEasy XL Adenoviral Vector System (Stratagene). SUR2A gene was cloned into a shuttle vector pShuttle-CMV by PCR using the following primers containing restrict enzyme sites Bgl II/Xho I, sense, 5′-GCAGATCT GGCAGGCTGTTGGTAGCTCA-3′, antisense, 5′-GCCTCGAG CTACTTGTTGGTCATCACCA-3. […] The virus titer is determined using QuickTiter Adenovirus Titer Immunoassay Kit (Cell Biolabs, Inc) according to manufacturer's instructions. […]
The survival of H9C2 cells were assayed using Multitox-Fluor Multiplex Cytotoxicity Assay (Promega). […] Following 30 min-long incubation at 37° C., plates were measured using 1420 Multibabel Counter (Victor) plate reader, with excitation at 370 nm and emissions of 480 nm. The percentage of live cells was calculated based on the intensity of fluorescence according to the manufacturer instructions.

[2] = tested on: cardiomyocytes; test: Intracellular Ca2+ (Fluo-3) in cardiomyocytes exposed to isoprenaline; format: cell-based, mouse; settings: 100 μM, n=6
Source text: Ventricular cardiomyocytes were dissociated from the mouse using an established enzymatic procedure. Mitochondrial membrane potential was monitored in cells exposed to hypoxia as described. To measure the mitochondrial membrane potential cells were loaded with JC-1 according to the manufacturer's instructions (Invitrogen, Paisley, UK) and continously monitored with LSM-510. Fluorescence was imaged at 488 nm excitation wavelength and emission was captured at 530 and 590 nm for green and red channels respectively; the JC-1 ratio refers always to green/red ratio. The moment of cell death was defined as the point when the cell has become rounded (ratio of diameters<2). In addition to mitochondrial membrane potential, intracellular Ca^2+ levels were also measured using Fluo-3, Ca^2+-sensitive dye [described in 11-13].

[3] = tested on: SUR2A mRNA; test: Real time RT-PCR of myocardial SUR2A mRNA in mice on nicotinamide-rich diet; format: in vivo; settings: n=6
Source text: Real time RT-PCR Total RNA was extracted from cardiac ventricular tissue of transgenic and wild type mice using TRIZOL reagent (Invitrogen, Paisley, UK) according to the manufacturer's recommendations. Extracted RNA was further purified with RNeasy Mini Kit (Qiagen, Crawley, UK) according to the manufacturer's instruction. The specific primers for mouse SUR2A, Kir6.2, Kir6.1, SUR1 and SUR2B (designed to amplify SUR2B and natively present SUR2A) were designed as follows: For SUR2A: sense, […], antisense, […]; for Kir6.2: sense; […], antisense, […]; for Kir6.1: sense, 5′-[…]-3, antisense, 5-[…]-3′; for SUR1: sense, 5′-GGAAGGACTCACCACCATC-3′, antisense, 5′-GAGACCATCAAGGCGTAGG-3′; for SUR2B: sense, 5′-GATGCCACTGTCACCGAAG-3′, antisense, 5-[…]-3′. The real time RT-PCR was performed as described in ref. 14.
Nicotinamide was administered orally, i.e. as a dietary supplement. Mice were fed with nicotinamide-rich diet (ad libidum; 500 mg of nicotinamide per 1 kg of food) for 3 weeks. Estimated daily intake was 2.5 mg. For some in vitro experiments, cardiac cells were incubated for 24 hours in a DMEM medium containing 10% fetal calf serum, 2 mM glutamine and 20 mM NAD or NADH.
All experiments have been done on male mice. […] After the test, mice were sacrificed, hearts harvested and SUR2A mRNA levels measured. […]

[4] = tested on: male mice; test: Treadmill endurance test; format: in vivo; settings: one week, n=6
Description: All experiments have been done on male mice. Mice were on RM1 ad libidum diet (SDS, UK) and RM1 diet supplemented with nicotinamide (0.1, 0.5, 2.5, 12.5 g of nicotinamide per kg of diet which would lead to daily intake of 0.04 mg of nicotinamide in control diet and 0.4 mg, 2 mg, 10 mg and 50 mg in nicotinamide-rich diets). All mice were of similar age and weight. Mice were on these diets for a week. To assess physical endurance in these mice, we have used treadmill endurance test. A six lane treadmill (Columbus Instruments, Columbus, Ohio) was used to perform treadmill tests. The exercise-induced stress protocol consisted of a step-wise increase in velocity at constant incline. Before the experiments, animals were acclimatized to the treadmill for 30 minutes; 10 minutes at 0 m/min, 10 minutes at 3 m/min followed by 10 minutes at 6 m/min two days prior to the treadmill endurance test. The treadmill endurance test consisted of a step-wise increase in velocity over time at constant incline. The animal was made to run at 3, 5, 8 (all at m/min) for 3 min intervals followed by 9, 10, 11, 12, 13, 14, 15 (all at m/min) for 5 min intervals and then at a constant velocity of 16 m/min until exhaustion. After the test, mice were sacrificed, hearts harvested and SUR2A mRNA levels measured. More specifically, total RNA was extracted from cardiac ventricular tissue of transgenic and wild type mice using TRIZOL reagent (Invitrogen, Paisley, UK) according to the manufacturer's recommendations. Extracted RNA was further purified with RNeasy Mini Kit (Qiagen, Crawley, UK) according to the manufacturer's instruction. The for mouse SUR2A were designed as follows: sense, […], antisense, […]. The reverse transcription (RT) reaction was carried out with ImProm-II Reverse Transcriptase (Promega, Southampton, UK). […] Efficiency is evaluated by the slope of the regression curve obtained with several dilutions of the cDNA template. […] Threshold cycle values, PCR efficiency (examined by serially diluting the template cDNA and performing PCR under these conditions) and PCR specificity (by constructing the melting curve) were determined by the same software. […] The relative expression ratio(R) of a gene encoding KATP channel subunit is calculated using equation R=(EK)^ΔCPk^(CD-ND)/(ER)^ΔCPR^(CD-ND) where EK is the real time PCR efficiency of SUR2A gene transcript, ER is the real time PCR efficiency of GAPDH gene, ΔCPK is the crossing point deviation of control diet-nicotinamide diet of SUR2A gene transcript while ΔCPR is the crossing point deviation of control diet-nicotinamide diet of GAPDH gene transcript.

SMILES: O=[N+]([O-])c1ccc(O)c([N+](=O)[O-])c1 [DNP]
- cells that survived DNP [1]: 43.3±1.8%

SMILES: CC(C)NCC(O)c1ccc(O)c(O)c1 (stereo not drawn) [isoprenaline]
- relative fluo-3 fluorescence (calcium levels) ([2]; cardiomyocytes from transgenic SUR2A mice): 78±16.6
- relative fluo-3 fluorescence (calcium levels) ([2]; cardiomyocytes from wild type mice): 127.2±13.8

SMILES: NC(=O)c1cccnc1 [nicotinamide]
- threshold cycle, SUR2A mRNA in the heart ([3]; 0.1 g/kg nicotinamide-rich diet, one week, after treadmill test): 21.8±0.8
- threshold cycle, SUR2A mRNA in hearts ([3]; nicotinamide-rich diet, 500 mg per 1 kg of food, 3 weeks, lower cycle = more mRNA): 23.57±1.47
- time on treadmill ([4]; 0.1 g/kg nicotinamide in diet): 144.0 ± 14.9 min
- time on treadmill ([4]; 0.5 g/kg nicotinamide in diet): 95.3 ± 18.1 min
- time on treadmill ([4]; 2.5 g/kg nicotinamide in diet): 103.7 ± 20.4 min
- time on treadmill ([4]; 12.5 g/kg nicotinamide in diet): 88.2 ± 12.5 min
